Results from patent publication US20260125356A1, “TREATMENT OF LEISHMANIASIS” (THE UNIVERSITY OF DURHAM, priority 2022, published 2026).
Converted amounts (≈) assume the structure as drawn. Like-named read-outs stand apart in the source and are kept apart here.

Columns and labels:
[1] = test system: L. donovani promastigotes; assay: L. donovani promastigote dose response assay (resazurin); type: cell-based; conditions: promastigotes, 72 hrs at 26° C., resazurin, read-out: EC50 (L. don)/μM
[2] = Kinetic solubility; conditions: for solubility at 2 h: kinetic from dmso stock
Excerpt: All chemicals and solvents were sourced from commercial suppliers. Buffers were made up using purified water from a MilliQ® water purification system. Biorelevant buffers (FESSIF, FASSIF and FASSGF) were purchased from Biorelevant and made up according to manufacturer's instructions. 15% FBS (heat inactivated, South American origin, ThermoFisher scientific) in PBS (Fisher Scientific) was filter sterilised (0.22 μm Fisherbrand™ Sterile PES Syringe Filter, Fisher Scientific) before use. Sodium taurocholate was purchased from Merck.
λmax was determined for each compound from the UV-Vis absorption spectrum of a 200 LIM compound solution in buffer of interest using a Varian Cary® 100 UV-Vis Spectrophotometer. A calibration curve of λmax VS concentration was obtained by serial dilution of compound from 200 μM in the buffer of interest, correcting for background buffer absorption. For each sample, a DMSO solution of compound was incubated in buffer of interest (<5% DMSO) for 2 hrs at RT. The solution was filtered (0.22 μm Fisherbrand™ Sterile PES Syringe Filter, Fisher Scientific) or centrifuged (14,500 rpm, 10 min) to remove undissolved debris and the supernatant was removed and diluted as required. The corrected UV absorption of the supernatant at Amax Was measured using a Varian Cary® 100 UV-Vis Spectrophotometer and compared to the calibration curve to determine compound solubility.

[3] = test system: L. amazonensis promastigotes; assay: L. amazonensis promastigote dose response assay (alamarBlue/resazurin); type: cell-based; conditions: 44 hrs + 4 hrs alamarBlue/resazurin, 26° C., read-out: EC50 (L. amaz)/μM
[4] = test system: L. major promastigotes; assay: L. major promastigote dose response assay (alamarBlue/resazurin); type: cell-based; conditions: 44 hrs + 4 hrs alamarBlue/resazurin, 26° C.
Description: (§1) Using a standard alamarBlue™ assay, activity and selectivity were assessed using L. major promastigotes and HepG2 cells, respectively.
All parasite and human cell cultures were grown and manipulated following biosafety level 2 instructions under sterile conditions. L. major FV1, L. amazonensis (MHOM/Br/75/JOSEFA), L. donovani BOB (derived from MHOM/SD/62/1S-CL2D), T. brucei (90-13, 427 strain) and T. cruzi (Dm28c) were used throughout.
All steps were carried out under sterile conditions. Frozen stocks of the relevant Leishmania promastigote species were thawed rapidly and added to Schneider's media. Promastigotes were grown at 26° C. in Nunc EasYFlask 25 cm^2 Nunclon Delta Surface (ThermoScientific) and frozen stocks were prepared on low passage cultures (p2-4) by pelleting the cells by centrifugation and resuspending in Schneider's media with 10% DMSO. The cultures were aliquoted into cryovials (Starlab) and cooled slowly to −150° C. for long term storage.
All steps were carried out under sterile conditions. […] Cycloheximide or amphotericin B were used as positive controls and 2% DMSO was used as a negative control. alamarBlue® (ThermoFisher scientific) or resazurin solution was added to each well and incubated for a further 4 hrs at 26° C. Cell-viability was determined using a BioTek™ FLx800 microplate reader with Gen5® 1.08 data analysis software (BioTek) by monitoring fluorescence emission (λex 560/λem 590 nm). Dose response curves were fitted using sigmoidal regression analysis (GraphPad Prism 8 software) and used to calculate EC50 values.

[5] = test system: S. aureus (FDA209P); assay: Antibacterial MIC/growth assay, S. aureus; type: cell-based; conditions: 16 hours at 37° C., absorbance 600 nm
Description: DMSO was used as a solvent control at a maximum final concentration of 10% (a greater percentage than would be achieved using the compounds at the concentrations in question). Plates were incubated at 37° C. with shaking for 16 hours before measuring absorbance at 600 nm. These values were then used to calculate percentage growth at each dilution of compound in comparison to growth in the absence of compound. The following day, the contents of each well were resuspended using a multichannel pipette, and 5 μl from each well was then applied to LB agar plates. These were incubated at 30° C. in a stationary incubator for 16 hours before imaging.

[6] = parameters: species or system swiss albino mice; conditions: mouse, in vivo
Description: DMPK studies were performed by GVK BIO Sciences Pvt Ltd Hyderabad, India, in collaboration with LifeArc. Three swiss albino mice per experiment were inoculated (IP or oral) with compound at 10 mg kg^−1 in 10% DMSO (2 mg mL^−1) on day 1. A small blood sample (50 μL) was taken after 15 minutes, 30 minutes, 1 hr, 2 hr, 4 hr, 6 hr, 8 hr and 24 hr. Proteins were precipitated in acetonitrile and the supernatant was diluted in 1:1 methanol:water and subject to LCMS analysis. The concentration of compound in the blood was determined by comparing the peak area to a calibration curve.

[7] = test system: HepG2 cells; assay: HepG2 cytotoxicity dose response assay; conditions: read-out: CC50 (HepG2)/μM, 44 hrs + 4 hrs alamarBlue/resazurin
Description: as §1
All steps were carried out under sterile conditions. HepG2 cells were thawed rapidly into DMEM. Cells were grown at 37° C., 5% CO2 for >5 days in T-75 CytoOne® Flask, TC-Treated, Vented flasks (Starlab) in a Sanyo MCO-18M incubator. […] The trypsin was deactivated by addition of DMEM. The cells were homogenised and 5 mL of cell culture was added to 20 mL fresh DMEM. Cells were split 1:4 every 3 days. Frozen stocks were prepared in the same way as the passage, but resuspended into DMEM with 10% DMSO, aliquoted into cryovials (Starlab) and cooled slowly to −150° C. for long term storage.
All steps were carried out under sterile conditions. 80-100% confluent HepG2 were plated into Corning™ Costar™ 96-Well Flat-Bottom Microplates (Fisher Scientific) by adding 200 μL of a homogenous dispersion of cells at a concentration of 0.6×10^5 cells mL^−1 before incubation at 37° C., 5% CO2 overnight. […] The plates were incubated at 37° C., 5% CO2 for 44 hrs in a Sanyo MCO-18M incubator. alamarBlue® (ThermoFisher scientific) or resazurin solution (10 μL) was added to each well and incubated for a further 4 hrs at 37° C., 5% CO2. Cell-viability was determined using a BioTek™ FLx800 microplate reader with Gen5® 1.08 data analysis software (BioTek) by monitoring fluorescence emission (Nex 560/hem 590 nm). Dose response curves were fitted using sigmoidal regression analysis (GraphPad Prism 8 software) and used to calculate EC50 values.

[8] = kinetic solubility in PBS, 2 hrs at RT
[9] = kinetic solubility in FESSIF, 2 hrs at RT

| Compound | EC50 [1] | Solubility (PBS)/μM [2, 8] | EC50 [3] | EC50 [4] | other results |
| --- | --- | --- | --- | --- | --- |
| O=C(Nc1ccccc1)c1ccc([N+](=O)[O-])s1 [Compound 33, 5′-nitro-N-phenylthiophene-2′-carboxamide] | 0.93 µM | 15 µM (≈ 3.72 µg/mL) | 3.6 µM | 4.06 µM | – |
| CNC(=O)C1CCCC1NC(=O)c1ccc([N+](=O)[O-])s1 (racemic) [Compound 25, N—[±2′-(methylcarbamoyl)cyclopentyl]-5′-nitrothiophene-2-carboxamide] | 3.4 µM | – | 8 µM | 20 µM | – |
| CNC(=O)c1ccc(OCCC2CCOCC2)cc1NC(=O)c1ccc([N+](=O)[O-])s1 [Compound 54, N-[2-(methylcarbamoyl)-5-[2″-(oxan-4″-yl)ethoxy]phenyl]-5′-nitrothiophene-2′-carboxamide] | – | – | – | – | EC50 ([1]; Leishmania donovani): 0.34 µM; solubility at 2 h ([2]; FESSIF): 47 µM (≈ 20.4 µg/mL); solubility at 2 h ([2]; PBS, aqueous buffer): 3.7 µM (≈ 1.6 µg/mL); EC50 ([3]; Leishmania amazonensis, 48 h): 0.46 µM; EC50 ([4]; Leishmania major, 48 h): 0.33 µM; inhibition of growth of S. aureus [5]: effective at inhibiting the bacteria at low concentrations |
| Ethyl 2-(5′-nitrothiophene-2′-amido)thiophene-3-carboxylate [Compound 4] | – | – | 1.85 µM | 0.93 µM | pharmacokinetic profile [6]: poor pharmacokinetic profiles |
| N-(3-carbamoylthiophen-2-yl)-5′-nitrothiophene-2′-carboxamide [Compound 1] | 0.004 µM | – | 0.042 µM | 0.52 µM | pharmacokinetic profile [6]: poor pharmacokinetic profiles |
| CNC(=O)c1ccsc1NC(=O)c1ccc([N+](=O)[O-])o1 [Compound 17, N-[3-(methylcarbamoyl)thiophen-2-yl]-5′-nitrofuran-2′-carboxamide] | – | – | – | – | EC50 ([1]; Leishmania donovani): 0.2 µM; EC50 ([3]; Leishmania amazonensis, 48 h): 0.33 µM; EC50 ([4]; Leishmania major, 48 h): 0.37 µM |
| NC(=O)c1ccccc1NC(=O)c1ccc([N+](=O)[O-])s1 [Compound 27, N-(2-carbamoylphenyl)-5′-nitrothiophene-2′-carboxamide] | – | – | 0.079 µM | 0.47 µM | Solubility (FESSIF)/μM [2]: 90 µM (≈ 26.2 µg/mL); Solubility (PBS)/μM [2]: <2.5 µM |
| CNC(=O)c1ccc(C(F)(F)F)cc1NC(=O)c1ccc([N+](=O)[O-])s1 [Compound 45, N-[2-(methylcarbamoyl)-5-(trifluoromethyl)phenyl]-5′-nitrothiophene-2′-carboxamide] | – | 6.5 µM (≈ 2.43 µg/mL) | 0.24 µM | 1.84 µM | Solubility (FESSIF)/μM [2, 9]: 250 µM (≈ 93.3 µg/mL); CC50 [7]: 13 µM |
| N-methyl-2-(5′-nitrothiophene-2′-amido)thiophene-3-carboxamide [Compound 2] | 0.033 µM | – | 0.29 µM | 0.99 µM | pharmacokinetic profile [6]: poor pharmacokinetic profiles |
| Methyl 2-(5′-nitrothiophene-2′-amido)thiophene-3-carboxylate [Compound 3] | 0.3 µM | – | 0.91 µM | 0.59 µM | pharmacokinetic profile [6]: poor pharmacokinetic profiles |
| CNC(=O)c1ccc(OCCOCCOC)cc1NC(=O)c1ccc([N+](=O)[O-])s1 [Compound 51, N-{5-[2″-(2″-methoxyethoxy)ethoxy]-2-(methylcarbamoyl)phenyl}-5′-nitrothiophene-2′-carboxamide] | – | – | – | – | EC50 ([1]; Leishmania donovani): 0.19 µM; solubility at 2 h ([2]; FASSGF, fassgf or other biorelevant): 11 µM (≈ 4.66 µg/mL); solubility at 2 h ([2]; FASSIF): < 7.4 µM; solubility at 2 h ([2]; FESSIF): 7.26 µM (≈ 3.07 µg/mL); solubility at 2 h ([2]; PBS, aqueous buffer): 2.27 µM (≈ 0.961 µg/mL); EC50 ([3]; Leishmania amazonensis, 48 h): 0.22 µM; EC50 ([4]; Leishmania major, 48 h): 0.32 µM |
| CNC(=O)c1ccc(C(C)(C)C)cc1NC(=O)c1ccc([N+](=O)[O-])s1 [Compound 55, N-[5-tert-butyl-2-(methylcarbamoyl)phenyl]-5′-nitrothiophene-2′-carboxamide] | – | – | – | – | EC50 ([1]; Leishmania donovani): 1.3 µM; solubility at 2 h ([2]; FESSIF): 260 µM (≈ 94 µg/mL); solubility at 2 h ([2]; PBS, aqueous buffer): < 2.5 µM; EC50 ([3]; Leishmania amazonensis, 48 h): 2.5 µM; EC50 ([4]; Leishmania major, 48 h): 1.35 µM |
| CNC(=O)c1ccc(C)cc1NC(=O)c1ccc([N+](=O)[O-])s1 [Compound 44, N-[5-methyl-2-(methylcarbamoyl)phenyl]-5′-nitrothiophene-2′-carboxamide] | 0.005 µM | <7.4 µM | 0.027 µM | 0.34 µM | Solubility (FESSIF)/μM [2, 9]: 65 µM (≈ 20.8 µg/mL); CC50 [7]: 31 µM |
| CNC(=O)c1ccccc1NC(=O)c1ccc([N+](=O)[O-])s1 [Compound 28, N-[2-(methylcarbamoyl)phenyl]-5′-nitrothiophene-2′-carboxamide] | 0.012 µM | 8.5 µM (≈ 2.6 µg/mL) | 0.052 µM | 0.65 µM | Solubility (FESSIF)/μM [2, 9]: 143 µM (≈ 43.7 µg/mL); CC50 [7]: 5 µM |
| CNC(=O)c1ccsc1N(C)C(=O)c1ccc([N+](=O)[O-])s1 [Compound 48, N-methyl-2-(N-methyl-5′-nitrothiophene-2′-amido)thiophene-3-carboxamide] | – | – | – | – | solubility at 2 h ([2]; PBS, aqueous buffer): 190 ± 20 µM (≈ 61.8 µg/mL); EC50 ([4]; Leishmania major, 48 h): 9.6 ± 0.7 µM |
| N-(3-cyanothiophen-2-yl)-5′-nitrothiophene-2′-carboxamide [Compound 5] | 1.12 µM | – | 2.1 µM | 1.1 µM | – |
| CNC(=O)c1ccc(Br)cc1NC(=O)c1ccc([N+](=O)[O-])s1 [Compound 46, N-[5-bromo2-(methylcarbamoyl)phenyl]-5′-nitrothiophene-2′-carboxamide] | 0.12 µM | <2.5 µM | 0.048 µM | 0.57 µM | Solubility (FESSIF)/μM [2, 9]: 210 µM (≈ 80.7 µg/mL); CC50 [7]: 7.2 µM |
| CNC(=O)c1ccc(OC)cc1NC(=O)c1ccc([N+](=O)[O-])s1 [Compound 43, N-[5-methoxy-2-(methylcarbamoyl)phenyl]-5′-nitrothiophene-2′-carboxamide] | 0.006 µM | <7.4 µM | 0.021 µM | 0.33 µM | Solubility (FESSIF)/μM [2, 9]: 38 µM (≈ 12.7 µg/mL); CC50 [7]: > 100 µM |
